Experimental data reported in patent US9090658B2, “Base-substituted benzylamine analogs for use as coagulation factor Xa inhibitors, the production and use thereof” (The Medicines Company (Leipzig) GmbH, priority 2003, dated 2015).
pKi: −log10 of the molar value.

Key:
[1] = target: F Xa; settings: prior art, literature values; cited from earlier work
[2] = target: Thrombin (UniProt P00735); assay: Determination of the inhibitory constants for thrombin (method of Stürzebecher et al. 1997); assay type: biochemical
Text: The Ki values are the average of at least three determinations.

[3] = target: T1, factor Xa (Bos taurus, UniProt P00743); assay: Determination of the inhibitory constants for factor Xa (chromogenic substrate Moc-D-Nle-Gly-Arg-pNA, Dixon method); assay type: biochemical, bovine; settings: for pKi: bovine factor Xa, 25° C., pH 8.0, average of at least three determinations
T1 construct: purchased Diagnostic Reagents Ltd, Thame, GB
T1 sequence (P00743 234-492 limits assumed): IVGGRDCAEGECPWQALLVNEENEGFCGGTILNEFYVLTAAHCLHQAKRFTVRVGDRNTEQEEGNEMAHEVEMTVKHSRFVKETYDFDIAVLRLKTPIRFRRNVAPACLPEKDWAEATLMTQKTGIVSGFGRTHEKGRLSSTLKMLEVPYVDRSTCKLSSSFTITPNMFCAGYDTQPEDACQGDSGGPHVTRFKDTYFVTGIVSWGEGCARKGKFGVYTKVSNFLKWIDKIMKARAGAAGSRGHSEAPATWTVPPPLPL
T1 sequence (P00743 41-180 partner limits assumed): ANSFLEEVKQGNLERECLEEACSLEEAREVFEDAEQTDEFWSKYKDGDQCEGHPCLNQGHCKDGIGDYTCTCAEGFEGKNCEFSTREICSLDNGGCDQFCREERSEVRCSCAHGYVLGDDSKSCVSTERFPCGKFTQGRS
Protocol: Determination of the inhibitory Effect
To determine the inhibitory effect, 200 μl of this buffer (0.05 M 0.154 M NaCl, 5% Ethanol, pH 8.0; contains the inhibitor), 25 μl of substrate (Moc-D-Nle-Gly-Arg-pNA in H2O; Pentapharm Ltd., Basle, Switzerland) and 50 μl of factor Xa (bovine, Diagnostic Reagents Ltd, thame, GB) were incubated at 25° C. After 3 min, the reaction was stopped By adding 25 μl of acetic acid (50%), and the absorption at 405 nm was determined using a Microplate Reader (MR 5000, Dynatech, Denkendorf, Germany). The Ki values were Founder by the Dixon method (boichem. J. 55, 170-171, 1953) by linear regression using a Computer program. The Ki values are the average of at least three determinations. The Thrombin inhibitions was determined in analogy to a method described earlier (Stürzebecher et al., J. Med. Chem. 40, 3091-3099, 1997).

pKi [2] | selectivity ratio SR (SR = Ki thrombin/Ki factor Xa) [3] | pKi [3] | Structure (SMILES) | pKi [1]
– | – | – | N=C(N)c1ccc(C=C2CCCCC(=Cc3ccc(C(=N)N)cc3)C2=O)cc1 [BABCH] | 7.89
6.74 | 30 | 8.22 | N=C(N)c1ccc(CNC(=O)[C@H](CCCc2ccccc2)NC(=O)C(CCc2ccncc2)NS(=O)(=O)Cc2ccccc2)cc1 (stereo partly shown) [Compound 38] | –
6.77 | 26 | 8.19 | N=C(N)c1ccc(CNC(=O)[C@H](CCC(=O)OCc2ccccc2)NC(=O)C(CCc2ccncc2)NS(=O)(=O)Cc2ccccc2)cc1 (stereo partly shown) [Compound 39] | –
5.96 | 170 | 8.19 | N=C(N)c1ccc(CNC(=O)CNC(=O)[C@@H](/C=C/c2ccccc2)NS(=O)(=O)Cc2ccccc2)cc1 [Compound 40] | –
5.82 | 288 | 8.14 | N=C(N)c1ccc(CNC(=O)CNC(=O)[C@@H](CCc2ccccc2)NS(=O)(=O)Cc2cccc(O)c2)cc1 [Compound 42] | –
4.82 | 2000 | 8.12 | N=C(N)c1ccc(CNC(=O)[C@H](CCC(=O)O)NC(=O)[C@@H](CCc2ccc(O)cc2)NS(=O)(=O)Cc2ccc([N+](=O)[O-])cc2)cc1 [Compound 43] | –
5.42 | 463 | 8.09 | COC(=O)Cc1ccc(CS(=O)(=O)NC(CCc2ccncc2)C(=O)NCC(=O)NCc2ccc(C(=N)N)cc2)cc1 (stereo not shown) [Compound 44] | –
5.85 | 150 | 8.03 | N=C(N)c1ccc(CNC(=O)CNC(=O)[C@@H](CCc2ccccc2)NS(=O)(=O)Cc2cccc(N)c2)cc1 [Compound 45] | –
5.12 | 775 | 8.01 | COC(=O)c1ccc(CS(=O)(=O)NC(CCc2ccncc2)C(=O)NCC(=O)NCc2ccc(C(=N)N)cc2)cc1 (stereo not shown) [Compound 46] | –
4.42 | 2923 | 7.89 | N=C(N)c1ccc(CNC(=O)CNC(=O)C(CCc2ccncc2)NS(=O)(=O)Cc2ccc(CC(=O)O)cc2)cc1 (stereo not shown) [Compound 49] | –
4.82 | 1153 | 7.89 | N=C(N)c1ccc(CNC(=O)[C@H](CCC(=O)O)NC(=O)[C@@H](CCc2ccccc2)NS(=O)(=O)Cc2ccccc2)cc1 [Compound 50] | –
5.85 | 87 | 7.80 | CC(C)(C)OC(=O)CC[C@H](NC(=O)[C@@H](CCc1ccncc1)NS(=O)(=O)Cc1ccc([N+](=O)[O-])cc1)C(=O)NCc1ccc(C(=N)N)cc1 [Compound 51] | –
4.08 | 5250 | 7.80 | N=C(N)c1ccc(CNC(=O)[C@H](CCC(=O)O)NC(=O)[C@@H](CCc2ccncc2)NS(=O)(=O)Cc2ccc(N)cc2)cc1 [Compound 52] | –
6.10 | 27 | 7.52 | N=C(N)c1ccc(CNC(=O)[C@H](CCCC(=O)O)NC(=O)[C@@H](CCc2ccccc2)NS(=O)(=O)Cc2ccccc2)cc1 [Compound 53] | –
6.16 | 18 | 7.41 | CC(C)(C)OC(=O)CC[C@H](NC(=O)[C@@H](CCc1ccc(O)cc1)NS(=O)(=O)Cc1ccc([N+](=O)[O-])cc1)C(=O)NCc1ccc(C(=N)N)cc1 [Compound 54] | –
6.68 | 3 | 7.17 | N=C(N)c1ccc(CNC(=O)CNC(=O)[C@@H](CCCc2ccccc2)NS(=O)(=O)Cc2ccccc2)cc1 [Compound 55] | –
4.89 | 156 | 7.08 | N=C(N)c1ccc(CNC(=O)[C@H](CCC(=O)O)NC(=O)[C@@H](CCc2ccccc2)NS(=O)(=O)Cc2cccc([N+](=O)[O-])c2)cc1 [Compound 56] | –
6.34 | 3.5 | 6.89 | CC(C)(C)OC(=O)CCC[C@H](NC(=O)[C@@H](CCc1ccccc1)NS(=O)(=O)Cc1ccccc1)C(=O)NCc1ccc(C(=N)N)cc1 [Compound 57] | –
5.74 | 3.1 | 6.24 | N=C(N)c1ccc(CNC(=O)CNC(=O)[C@@H](C/C=C/c2ccccc2)NS(=O)(=O)Cc2ccccc2)cc1 [Compound 58] | –
4.80 | 16 | 6.01 | N=C(N)c1ccc(CNC(=O)CNC(=O)[C@@H](CCc2ccccc2)NS(=O)(=O)Cc2cc[n+]([O-])cc2)cc1 [Compound 59] | –
5.46 | 730 | 8.32 | N=C(N)c1ccc(CNC(=O)CNC(=O)C(CCc2cc[n+]([O-])cc2)NS(=O)(=O)Cc2ccccc2)cc1 (stereo not shown) [Compound 60] | –
5.77 | 250 | 8.17 | N=C(N)c1ccc(CNC(=O)[C@H](CCC(=O)NCc2ccccc2)NC(=O)[C@@H](CCc2ccncc2)NS(=O)(=O)Cc2ccccc2)cc1 [Compound 61] | –
5.89 | 1.2 | 5.97 | CS(=O)(=O)N[C@H](CCc1ccccc1)C(=O)NCC(=O)NCc1ccc(C(=N)N)cc1 [Compound 62] | –
5.82 | 2.4 | 6.21 | CC(C)(C)OC(=O)CN[C@H](CCc1ccccc1)C(=O)NCC(=O)NCc1ccc(C(=N)N)cc1 [Compound 63] | –
4.55 | 32 | 6.06 | N=C(N)c1ccc(CNC(=O)CNC(=O)[C@@H](CCc2ccccc2)NCC(=O)O)cc1 [Compound 64] | –
4.00 | 833 | 6.92 | Nc1ccc(CNC(=O)CNC(=O)C(CCc2ccncc2)NS(=O)(=O)Cc2ccccc2)cn1 (stereo not shown) [Compound 65] | –
